Experimental data: patent US6432662B1, “Assay of peroxidase activity” (Pierce Chemical Company, priority 1999, dated 2002)

Key:
SA-HRP = SA-HRP (Armoracia rusticana, UniProt P00433); assay: Dot blot application of water soluble azine enhancers (Example 8); type: biochemical, horseradish
[1] = target: horseradish peroxidase labeled streptavidin (SA-HRP) (Armoracia rusticana, UniProt P00433); assay: Blot application comparing enhancer working solutions (Example 7); type: biochemical; conditions: after the 30 minute reexposure, enhancer: 1c […] (present invention) or 52 μM (low), 1b 52 μM, 3 13.5 μM
[2] = 50 μM enhancer with 1 mM Sodium Luminol
[3] = […] enhancer with 5 mM Sodium Luminol

Row | Relative Intensity 2 pg SA-HRP [1] | Relative Intensity 5 pg SA-HRP [1] | Relative Intensity 20 pg SA-HRP [1] | Substance | Net Relative Intensity at 10 pg SA-HRP (SA-HRP; [2]) | Net Relative Intensity at 100 pg SA-HRP (SA-HRP; [2]) | Net Relative Intensity at 10 pg SA-HRP (SA-HRP; [3]) | Net Relative Intensity at 100 pg SA-HRP (SA-HRP; [3])
1 |  |  |  | 2-chloro-10 (3 trimethyl amino propyl)-phenothiazonan bromide [Azine Enhancer 1d] | 0 | 0 | 225,632 | 311,048
2 | 0 | 106,776 | 598,072 | Phenylindophenol/indophenol [Phenolic Enhancer 3] |  |  |  | 
